Active and inactive are the calls of the source. No cut-off for these calls is given here.
Assays:
[1] = molecular target: T1, Tyrosine-protein kinase receptor UFO (Homo sapiens, UniProt P30530); assay: Binding affinity to AXL (unknown origin) assessed as dissociation constant by competition binding assay
T1 sequence (P30530 whole entry): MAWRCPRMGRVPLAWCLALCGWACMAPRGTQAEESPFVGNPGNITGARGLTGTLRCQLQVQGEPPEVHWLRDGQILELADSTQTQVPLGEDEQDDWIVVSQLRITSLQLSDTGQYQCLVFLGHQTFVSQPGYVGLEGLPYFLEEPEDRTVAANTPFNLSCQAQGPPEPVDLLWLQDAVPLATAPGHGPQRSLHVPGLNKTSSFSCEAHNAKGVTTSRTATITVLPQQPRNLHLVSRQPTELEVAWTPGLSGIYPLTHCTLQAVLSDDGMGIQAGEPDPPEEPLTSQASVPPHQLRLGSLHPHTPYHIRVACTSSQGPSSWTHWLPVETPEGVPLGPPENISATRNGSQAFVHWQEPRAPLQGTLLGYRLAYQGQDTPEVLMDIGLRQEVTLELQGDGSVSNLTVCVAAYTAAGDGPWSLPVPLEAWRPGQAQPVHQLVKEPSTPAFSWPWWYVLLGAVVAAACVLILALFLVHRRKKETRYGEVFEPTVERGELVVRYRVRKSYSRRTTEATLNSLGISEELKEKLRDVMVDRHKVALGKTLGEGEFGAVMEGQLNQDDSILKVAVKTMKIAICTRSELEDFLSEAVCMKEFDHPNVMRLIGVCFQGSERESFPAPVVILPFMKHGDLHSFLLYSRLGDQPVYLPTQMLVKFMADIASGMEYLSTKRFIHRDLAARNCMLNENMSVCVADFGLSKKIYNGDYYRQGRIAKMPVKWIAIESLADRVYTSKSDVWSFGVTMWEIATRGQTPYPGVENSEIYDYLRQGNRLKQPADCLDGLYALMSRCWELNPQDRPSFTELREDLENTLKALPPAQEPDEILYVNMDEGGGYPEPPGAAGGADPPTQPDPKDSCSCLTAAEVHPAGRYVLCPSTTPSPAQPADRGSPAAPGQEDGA

[2] = molecular target: Epithelial discoidin domain-containing receptor 1 (Homo sapiens, UniProt Q08345); assay: Binding affinity to DDR1 (unknown origin) assessed as dissociation constant by competition binding assay
[3] = molecular target: Ephrin type-B receptor 6 (Homo sapiens, UniProt O15197); assay: Binding affinity to EPHB6 (unknown origin) assessed as dissociation constant by competition binding assay
Ephrin type-B receptor 6, sequence (O15197 whole entry): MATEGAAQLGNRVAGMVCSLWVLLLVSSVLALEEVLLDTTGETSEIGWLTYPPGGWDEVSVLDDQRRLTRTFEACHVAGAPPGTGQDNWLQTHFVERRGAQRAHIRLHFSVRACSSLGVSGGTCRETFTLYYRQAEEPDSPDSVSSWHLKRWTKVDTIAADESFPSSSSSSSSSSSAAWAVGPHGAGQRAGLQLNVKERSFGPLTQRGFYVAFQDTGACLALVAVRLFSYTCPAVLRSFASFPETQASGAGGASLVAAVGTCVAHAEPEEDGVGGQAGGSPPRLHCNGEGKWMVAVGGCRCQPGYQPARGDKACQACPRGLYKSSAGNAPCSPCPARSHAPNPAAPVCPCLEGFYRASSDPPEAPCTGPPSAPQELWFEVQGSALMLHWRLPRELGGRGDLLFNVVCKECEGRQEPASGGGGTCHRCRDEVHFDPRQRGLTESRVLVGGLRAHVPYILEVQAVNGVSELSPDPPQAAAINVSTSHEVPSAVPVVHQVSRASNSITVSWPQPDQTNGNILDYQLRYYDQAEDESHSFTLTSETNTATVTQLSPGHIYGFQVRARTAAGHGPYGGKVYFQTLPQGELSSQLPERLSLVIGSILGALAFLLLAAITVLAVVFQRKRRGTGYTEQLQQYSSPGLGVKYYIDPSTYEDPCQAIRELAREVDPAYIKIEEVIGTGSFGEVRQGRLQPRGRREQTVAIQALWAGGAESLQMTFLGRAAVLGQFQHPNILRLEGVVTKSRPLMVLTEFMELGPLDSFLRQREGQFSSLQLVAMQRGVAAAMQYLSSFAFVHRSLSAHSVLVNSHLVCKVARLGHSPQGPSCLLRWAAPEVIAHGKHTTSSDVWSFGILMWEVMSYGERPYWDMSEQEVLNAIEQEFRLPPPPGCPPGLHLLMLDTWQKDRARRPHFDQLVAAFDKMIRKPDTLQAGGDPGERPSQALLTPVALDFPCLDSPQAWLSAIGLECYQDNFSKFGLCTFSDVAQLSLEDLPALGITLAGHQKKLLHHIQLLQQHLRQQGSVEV

[4] = molecular target: Vascular endothelial growth factor receptor 3 (Homo sapiens, UniProt P35916); assay: Binding affinity to FLT4 (unknown origin) assessed as dissociation constant by competition binding assay
[5] = molecular target: T2, Mast/stem cell growth factor receptor Kit (Homo sapiens, UniProt P10721); assay: Binding affinity to KIT (unknown origin) assessed as dissociation constant by competition binding assay
T2 sequence (P10721 whole entry): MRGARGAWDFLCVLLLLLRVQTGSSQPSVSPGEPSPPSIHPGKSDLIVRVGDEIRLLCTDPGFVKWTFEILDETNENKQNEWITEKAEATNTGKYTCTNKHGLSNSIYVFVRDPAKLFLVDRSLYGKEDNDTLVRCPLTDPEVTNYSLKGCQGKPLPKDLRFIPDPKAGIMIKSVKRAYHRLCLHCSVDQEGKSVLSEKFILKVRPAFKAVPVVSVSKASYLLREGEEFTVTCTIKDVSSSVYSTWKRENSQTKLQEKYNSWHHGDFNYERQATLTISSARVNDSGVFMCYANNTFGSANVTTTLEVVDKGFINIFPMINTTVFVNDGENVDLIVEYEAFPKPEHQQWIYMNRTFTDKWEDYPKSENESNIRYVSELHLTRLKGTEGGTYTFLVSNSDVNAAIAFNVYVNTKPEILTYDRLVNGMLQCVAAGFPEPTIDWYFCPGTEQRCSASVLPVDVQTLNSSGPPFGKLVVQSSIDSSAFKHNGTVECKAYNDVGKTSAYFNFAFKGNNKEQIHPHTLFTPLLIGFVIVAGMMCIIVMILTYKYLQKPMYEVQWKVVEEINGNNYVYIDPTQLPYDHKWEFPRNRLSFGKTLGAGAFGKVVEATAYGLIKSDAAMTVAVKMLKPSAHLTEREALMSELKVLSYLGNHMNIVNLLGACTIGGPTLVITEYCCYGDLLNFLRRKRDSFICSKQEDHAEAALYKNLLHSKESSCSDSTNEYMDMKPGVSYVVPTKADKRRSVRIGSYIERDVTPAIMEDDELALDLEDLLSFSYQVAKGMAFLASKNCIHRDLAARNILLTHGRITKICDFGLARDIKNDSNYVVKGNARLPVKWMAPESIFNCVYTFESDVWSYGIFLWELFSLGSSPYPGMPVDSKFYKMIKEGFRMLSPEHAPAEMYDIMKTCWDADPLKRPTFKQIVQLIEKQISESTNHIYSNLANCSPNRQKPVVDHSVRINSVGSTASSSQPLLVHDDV

[6] = molecular target: Tyrosine-protein kinase Mer (Homo sapiens, UniProt Q12866); assay: Binding affinity to MERTK (unknown origin) assessed as dissociation constant by competition binding assay
[7] = molecular target: Hepatocyte growth factor receptor (Homo sapiens, UniProt P08581); assay: Binding affinity to MET (unknown origin) assessed as dissociation constant by competition binding assay
[8] = molecular target: T3, Platelet-derived growth factor receptor beta (Homo sapiens, UniProt P09619); assay: Binding affinity to PDGFRB (unknown origin) assessed as dissociation constant by competition binding assay
T3 sequence (P09619 whole entry): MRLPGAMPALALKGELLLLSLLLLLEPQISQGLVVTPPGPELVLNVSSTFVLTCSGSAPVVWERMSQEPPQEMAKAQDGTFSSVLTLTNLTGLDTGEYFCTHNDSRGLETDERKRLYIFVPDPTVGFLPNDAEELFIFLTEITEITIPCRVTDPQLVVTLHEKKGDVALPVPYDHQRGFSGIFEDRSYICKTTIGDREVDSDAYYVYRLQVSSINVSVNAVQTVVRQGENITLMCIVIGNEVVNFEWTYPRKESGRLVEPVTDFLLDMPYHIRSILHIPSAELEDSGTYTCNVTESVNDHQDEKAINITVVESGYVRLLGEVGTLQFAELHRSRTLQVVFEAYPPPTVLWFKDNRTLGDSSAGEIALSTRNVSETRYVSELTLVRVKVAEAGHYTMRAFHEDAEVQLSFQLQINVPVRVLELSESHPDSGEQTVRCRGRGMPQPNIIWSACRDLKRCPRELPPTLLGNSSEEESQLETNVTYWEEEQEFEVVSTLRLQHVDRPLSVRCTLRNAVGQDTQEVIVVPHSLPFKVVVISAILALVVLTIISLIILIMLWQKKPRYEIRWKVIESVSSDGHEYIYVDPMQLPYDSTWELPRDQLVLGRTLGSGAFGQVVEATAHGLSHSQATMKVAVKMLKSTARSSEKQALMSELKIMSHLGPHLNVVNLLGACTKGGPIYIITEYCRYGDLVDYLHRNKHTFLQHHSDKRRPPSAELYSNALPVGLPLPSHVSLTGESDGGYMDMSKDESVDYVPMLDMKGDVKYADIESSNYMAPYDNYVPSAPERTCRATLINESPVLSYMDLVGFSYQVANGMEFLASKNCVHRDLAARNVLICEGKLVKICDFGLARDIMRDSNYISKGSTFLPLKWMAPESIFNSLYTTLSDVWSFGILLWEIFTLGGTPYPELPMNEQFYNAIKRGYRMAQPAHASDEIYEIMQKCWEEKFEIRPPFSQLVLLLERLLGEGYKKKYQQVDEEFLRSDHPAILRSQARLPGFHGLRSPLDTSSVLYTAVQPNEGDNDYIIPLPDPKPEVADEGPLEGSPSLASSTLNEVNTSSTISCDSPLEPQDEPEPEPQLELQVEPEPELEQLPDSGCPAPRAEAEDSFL

[9] = molecular target: Proto-oncogene tyrosine-protein kinase receptor Ret (Homo sapiens, UniProt P07949); assay: Binding affinity to RET (unknown origin) assessed as dissociation constant by competition binding assay
[10] = molecular target: Angiopoietin-1 receptor (Homo sapiens, UniProt Q02763); assay: Binding affinity to TIE2 (unknown origin) assessed as dissociation constant by competition binding assay
Angiopoietin-1 receptor, sequence (Q02763 whole entry): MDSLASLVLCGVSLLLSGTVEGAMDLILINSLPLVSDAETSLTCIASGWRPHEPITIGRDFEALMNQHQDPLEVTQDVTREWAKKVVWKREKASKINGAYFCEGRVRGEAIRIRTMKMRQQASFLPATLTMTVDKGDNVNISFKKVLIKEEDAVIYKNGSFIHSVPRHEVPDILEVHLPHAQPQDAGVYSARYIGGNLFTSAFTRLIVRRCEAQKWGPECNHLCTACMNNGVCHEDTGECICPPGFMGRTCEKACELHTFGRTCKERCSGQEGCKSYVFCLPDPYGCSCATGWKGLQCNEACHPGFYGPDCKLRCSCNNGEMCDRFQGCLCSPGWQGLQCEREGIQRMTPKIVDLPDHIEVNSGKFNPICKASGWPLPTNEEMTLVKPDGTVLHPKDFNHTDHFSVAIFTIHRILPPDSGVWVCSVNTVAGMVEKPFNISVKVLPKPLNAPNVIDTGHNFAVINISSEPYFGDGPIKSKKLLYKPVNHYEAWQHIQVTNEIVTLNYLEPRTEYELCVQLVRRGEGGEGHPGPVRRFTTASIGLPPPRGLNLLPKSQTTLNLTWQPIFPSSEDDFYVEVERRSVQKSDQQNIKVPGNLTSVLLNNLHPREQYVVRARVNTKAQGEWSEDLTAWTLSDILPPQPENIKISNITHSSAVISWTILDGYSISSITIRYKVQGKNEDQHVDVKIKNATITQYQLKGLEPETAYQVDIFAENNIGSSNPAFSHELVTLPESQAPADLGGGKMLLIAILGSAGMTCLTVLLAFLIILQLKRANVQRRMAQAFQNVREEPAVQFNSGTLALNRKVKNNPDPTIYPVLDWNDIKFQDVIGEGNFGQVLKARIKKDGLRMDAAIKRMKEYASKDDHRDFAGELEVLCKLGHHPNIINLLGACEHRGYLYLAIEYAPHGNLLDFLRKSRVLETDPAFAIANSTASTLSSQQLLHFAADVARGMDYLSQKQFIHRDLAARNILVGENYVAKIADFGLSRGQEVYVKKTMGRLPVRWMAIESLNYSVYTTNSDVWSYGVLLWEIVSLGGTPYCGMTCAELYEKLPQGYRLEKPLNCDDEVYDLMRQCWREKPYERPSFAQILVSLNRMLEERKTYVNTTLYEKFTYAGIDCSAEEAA

[11] = molecular target: Receptor-type tyrosine-protein kinase FLT3 (Homo sapiens, UniProt P36888); assay: Inhibition of FLT3 (unknown origin)
[12] = molecular target: T2, Mast/stem cell growth factor receptor Kit; assay: Inhibition of KIT (unknown origin)
[13] = molecular target: T3, Platelet-derived growth factor receptor beta; assay: Inhibition of PDGFRB (unknown origin)
[14] = system: 4T1; assay: Inhibition of ERK phosphorylation in mouse 4T1 cells measured after 6 hrs by Western blot analysis; format: cell-based; settings: dose 0.8-500 nM, DDE = dose-dependent effect
[15] = Inhibition of TGF-beta induced cell invasion in human MDA-MB-231 cells at 3 uM incubated for 24 hrs by crystal violet staining based transwell assay relative to control; format: functional
[16] = Inhibition of TGF-beta induced cell invasion in human MDA-MB-231 cells at 0.33 uM incubated for 24 hrs by crystal violet staining based transwell assay relative to control; format: functional
[17] = Half life in Sprague-Dawley rat at 25 mg/kg, po measured for 96 hrs by LC-MS analysis; format: ADME, organism-based; settings: in vivo
[18] = Cmax in Sprague-Dawley rat at 25 mg/kg, po measured for 96 hrs by LC-MS analysis; format: ADME, organism-based; design: dose 25 mg/kg, time 96 hrs, route po; settings: in vivo
[19] = Observed AUCinfinity in Sprague-Dawley rat at 25 mg/kg, po measured for 96 hrs by LC-MS analysis; format: ADME, organism-based; design: dose 25 mg/kg, time 96 hrs, route po; settings: in vivo
[20] = Observed MRTinfinity in Sprague-Dawley rat at 5 mg/kg, iv measured for 96 hrs by LC-MS analysis; format: ADME, organism-based; settings: in vivo
[21] = Observed MRTinfinity in Sprague-Dawley rat at 25 mg/kg, po measured for 96 hrs by LC-MS analysis; format: ADME, organism-based; settings: in vivo
[22] = system: 4T1; assay: Antitumor activity against metastatic mouse 4T1 cells implanted in BALB/c mouse assessed as tumor growth inhibition at 50 mg/kg, po qd administered for 14 consecutive days and measured every 2 days by electronic caliper method relative to control; format: functional; settings: 4T1, 336 h, time 14 day, read-out: TGI
[23] = system: 4T1; assay: Antitumor activity against metastatic mouse 4T1 cells implanted in BALB/c mouse assessed as tumor growth inhibition at 100 mg/kg, po qd administered for 14 consecutive days and measured every 2 days by electronic caliper method relative to control; format: functional; settings: 4T1, 336 h, time 14 day, read-out: TGI
[24] = Toxicity in BALB/c mouse implanted with mouse 4T1 cells assessed as body weight loss at 50 to 100 mg/kg, po qd administered for 14 consecutive days and measured every 2 days; format: organism-based; settings: in vivo, 336 h, dose 50-100 mg/kg, time 14 day
[25] = Toxicity in BALB/c mouse implanted with mouse 4T1 cells assessed as effect on implantation rate at 50 to 100 mg/kg, po qd administered for 14 consecutive days and measured every 2 days; format: organism-based; settings: in vivo, 336 h, dose 50-100 mg/kg, time 14 day
[26] = system: 4T1; assay: Antitumor activity against metastatic mouse 4T1 cells implanted in BALB/c mouse assessed as inhibition of liver micrometastasis at 50 to 100 mg/kg, po qd administered for 14 consecutive days by H & E staining based microscopic analysis; format: functional, organism-based; settings: dose 50-100 mg/kg, time 14.0 day
[27] = system: 4T1; assay: Antitumor activity against metastatic mouse 4T1 cells implanted in BALB/c mouse assessed as reduction in size of liver metastases administered orally once daily for 14 consecutive days by H & E staining based microscopic analysis; format: functional; settings: dose 50-100 mg/kg, route po, time 14.0 day, DDE = dose-dependent effect
[28] = Toxicity in BALB/c mouse implanted with mouse 4T1 cells assessed as splenomegaly at 50 to 100 mg/kg, po qd administered for 14 consecutive days; format: organism-based; settings: in vivo, 336 h, dose 50-100 mg/kg, time 14 day

SMILES: COc1cc2c(Oc3ccc(Nc4nn(C)cc4C(=O)NC4CCCCC4)cc3F)ccnc2cc1OCCCN1CCOCC1
- Kd [1]: 0.26 nM
- Kd [2]: > 1000 nM
- Kd [3]: > 1000 nM
- Kd [4]: 19 nM
- Kd [5]: 2.6 nM
- Kd [6]: 560 nM
- Kd [7]: > 1000 nM
- Kd [8]: 2.3 nM
- Kd [9]: 600 nM
- Kd [10]: 950 nM
- IC50 [11]: 156 nM
- IC50 [12]: 151 nM
- IC50 [13]: > 10000 nM
- inhibition [14]: Dde
- inhibition at 3 µM [15]: 70.4%
- inhibition at 0.33 µM [16]: 34.8%
- half-life [17]: 4.22 h
- Cmax [18]: 888 ng/mL
- AUC(0-inf) [19]: 8630 ng·h/mL
- MRT inf [20]: 1.82 h
- MRT inf [21]: 6.55 h
- inhibition in vivo at 50 mg/kg [22]: 78%
- inhibition in vivo at 100 mg/kg [23]: 95.9%
- Activity [24]: Non-Toxic
- Activity [25]: Non-Toxic
- inhibition [26]: Active
- Activity [27]: Dde
- Activity [28]: Non-Toxic
